Results as given in patent publication US20170334804A1, “F-18 LABELED TRACER AND METHODS OF MANUFACTURE” (The General Hospital Corporation, priority 2014, published 2017).

Test system: patients with stable coronary artery disease (CAD)
Assay: PET/CT myocardial perfusion imaging in patients with stable CAD, compared with 99mTc Sestamibi SPECT and CTA
Format: in vivo, human
Settings: for detecting areas of reversible myocardial perfusion: PET with FTPP vs SPECT with 99mTc Sestamibi, baseline and post-adenosine
Protocol: One of the objectives of this study: the PET image properties of FTPP as a myocardial perfusion agent were evaluated in patients with stable coronary artery disease (CAD).
Patients with stable CAD were included in a 3 day study protocol. Safety endpoints included vital signs, 12 lead ECG and clinical laboratory tests. Imaging was performed with Siemens Biograph 64 PET/CT scanner and imaging entailed a CT for positioning, attenuation measurement and evaluation of coronary artery anatomy (day-1). This was followed by baseline and post-adenosine SPECT imaging with ^99mTc Sestamibi. On day 2, 10 mCi of FTPP was administered followed by a second 10 mCi dose of FTPP and PET/CT imaging.

extraction from blood (patients with stable CAD) | heart uptake over time (patients with stable CAD) | imaging window after injection (patients with stable CAD) | target-to-background ratios (patients with stable CAD) | Structure (SMILES) | detecting areas of reversible myocardial perfusion | image resolution, stress PET vs stress MIBI SPECT (FIG. 2, person with chest pain) | stress images, detection of ischemia (FIG. 3, stress images) | blood flow imaging properties (patients with stable CAD, preliminary findings) | safety (vital signs, 12 lead ECG, clinical laboratory tests)
– | – | – | – | [C-]#[N+]CC(C)(C)OC.[C-]#[N+]CC(C)(C)OC.[C-]#[N+]CC(C)(C)OC.[C-]#[N+]CC(C)(C)OC.[C-]#[N+]CC(C)(C)OC.[C-]#[N+]CC(C)(C)OC.[Tc] [^99mTc Sestamibi, reference compound] | similarly effective | – | – | – | –
rapid | stable | ≤ 30 min | high | Fc1ccc([P+](c2ccccc2)(c2ccccc2)c2ccccc2)cc1 [FTPP, 4-[^18F]Fluorophenyltriphenylphosphonium ion] | similarly effective | high resolution | confirming ischemia | excellent | safe
